Test results reported in PubChem BioAssay AID789 (SRMLSC, 2007).
Activity calls are given as the source filed them. How the calls were made is not given here.

test system: not listed separately; experiment: growth inhibition of apl2Δ yeast, dose response, selectivity assay for post-Golgi transport modulator project, S. cerevisiae, secondary screen, background strain comparison (AID 789); conditions: S. cerevisiae apl2Δ mutant growth inhibition; at 25 µM (top of the series)

For `O=C(Nc1nnc(-c2ccccc2)o1)c1ccc(Cl)cc1`, which growth inhibition is on record?
Its growth inhibition is 40.8% (inactive).

Which growth inhibition does the source give for `CCOC(=O)c1ccc(NC(=O)c2cn(-c3ccccc3)nc2-c2ccncc2)cc1` here?
Its growth inhibition is 18.6% (inactive).

Which growth inhibition does the source give for `O=C(Nc1nnc(C2CC2)o1)c1ccc(S(=O)(=O)N2CCCc3ccccc32)cc1` here?
The growth inhibition was 30.1% (inactive).

same assay, conditions: S. cerevisiae background (wild-type parent) strain growth inhibition

With `O=C(Nc1nnc(-c2ccccc2)o1)c1ccc(Cl)cc1` as the compound, how does the IC50 read?
The IC50 was 0.65 µM.

With `CC(=O)c1ccc(N2CCN(C(=O)c3ccc(Br)cc3)CC2)c(F)c1` as the compound, how does the IC50 read?
The IC50 was 6.58 µM.

For `CCCCCCCCNc1ncnc2ccccc12`, which IC50 is on record?
The IC50 was 14.8 µM.

With `N[C@@H](Cc1c[nH]c2ccccc12)c1nnc(SCc2ccc(Cl)cc2)o1` as the compound, how does the IC50 read?
Its IC50 is 20.4 µM.

Which IC50 does the source give for `O=C(OCn1ncc(Cl)c(Cl)c1=O)c1cccc(C(F)(F)F)c1` here?
Its IC50 is 3.51 µM.

For `CCCCC(=O)Nc1nc(C)c(-c2csc(Nc3ccc(Cl)cc3)n2)s1`, which IC50 is on record?
Its IC50 is 6.26 µM.

With `Cc1cccc(-c2nnc(-c3cccc(NC(=O)Cc4cccs4)c3)o2)c1` as the compound, how does the IC50 read?
The IC50 was 15.2 µM.

With `Cc1ccc(Cl)c(OCCCCN(C)Cc2ccccc2)c1` as the compound, how does the IC50 read?
Its IC50 is greater than 10 µM.

With `CCOC(=O)c1ccc(NC(=O)c2cn(-c3ccccc3)nc2-c2ccncc2)cc1` as the compound, how does the IC50 read?
The IC50 was 11.5 µM.

Which IC50 does the source give for `Cc1ccc(OCC(O)CN2CCN(Cc3ccc4c(c3)OCO4)CC2)c(C)c1` (centres undefined) here?
The IC50 was greater than 10 µM.

For `O=C(Nc1nnc(C2CC2)o1)c1ccc(S(=O)(=O)N2CCCc3ccccc32)cc1`, which IC50 is on record?
Its IC50 is 3.17 µM.

For `O=C(Nc1ccccc1)C1=C(O)CC(c2ccco2)CC1=Nc1ccccc1` (centres undefined), which IC50 is on record?
The IC50 was greater than 10 µM.

Which IC50 does the source give for `O=C(CC(=O)c1cc(Cl)ccc1O)c1ccccc1` here?
Its IC50 is 12.7 µM.

For `CCCCC(c1nnnn1Cc1ccco1)N1CCN(c2nc3ccccc3s2)CC1` (centres undefined), which IC50 is on record?
Its IC50 is 3.9 µM.

For `CC1CN(CCCCOc2ccc(C(C)C)cc2)CC(C)O1` (centres undefined), which IC50 is on record?
The IC50 was greater than 10 µM.

For `O=C1c2ccccc2C(=O)c2c1oc(C(F)(F)F)c2C(=O)c1ccccc1`, which IC50 is on record?
Its IC50 is 2.2 µM.

Which IC50 does the source give for `CCCCCOc1ccc(CN2CCOCC2)cc1Cl` here?
The IC50 was greater than 10 µM.

test system: S. cerevisiae apl2Δ mutant growth inhibition; experiment: as above; conditions: not given

Which IC50 does the source give for `COc1ccc(OCCSc2nnc3sc4ccccc4n23)cc1` here?
The IC50 was > 10 µM (inactive).

For `CC(C)c1ccc(C(=O)CSc2n[nH]c(-c3ccncc3)n2)cc1`, which IC50 is on record?
The IC50 was 17 µM.

With `CC12CCC(c3c(C(=O)Nc4nccs4)nn(-c4ccccc4)c31)C2(C)C` (centres undefined) as the compound, how does the IC50 read?
Its IC50 is > 10 µM (inactive).

Which IC50 does the source give for `CC(c1nnc(SCn2nnc3ccccc3c2=O)n1-c1ccc(Cl)cc1)N(C)C` (centres undefined) here?
The IC50 was > 10 µM (inactive).

For `CC1CCC(C(C)C)C(OCC(O)CN2CCN(Cc3ccccc3)CC2)C1` (centres undefined), which IC50 is on record?
The IC50 was 19.3 µM.

Which IC50 does the source give for `O=S(=O)(Cc1ccccc1Cl)N1CCN(Cc2ccc3c(c2)OCO3)CC1` here?
The IC50 was > 10 µM (inactive).

Which IC50 does the source give for `O=C(NCC(c1cccnc1)N1CCN(c2ccc(F)cc2)CC1)OCc1ccccc1` (centres undefined) here?
Its IC50 is 23.4 µM.

Which IC50 does the source give for `CCOc1ccc(NC(=O)N(C2CCCCC2)C(C)c2cccnc2)cc1` (centres undefined) here?
Its IC50 is 21.5 µM.

With `O=C(CN1CCN(c2ccccn2)CC1)Nc1ccc(Oc2ccccc2)cc1` as the compound, how does the IC50 read?
Its IC50 is > 10 µM (inactive).

With `O=S1(=O)C=C(Sc2nc3ccccc3s2)c2ccccc21` as the compound, how does the IC50 read?
The IC50 was > 10 µM (inactive).

For `CCOc1nc(SCCOc2ccccc2)nc(N(C)C)n1`, which IC50 is on record?
Its IC50 is > 10 µM (inactive).

Which IC50 does the source give for `O=S1(=O)C=C(Sc2nnc(-c3ccccc3)o2)c2ccccc21` here?
Its IC50 is > 10 µM (inactive).

Which IC50 does the source give for `N#Cc1ccccc1Cn1cc(C(=O)c2cccs2)c2ccccc21` here?
Its IC50 is > 10 µM (inactive).

Which IC50 does the source give for `O=[N+]([O-])c1cc(Cl)cc(/C=N\Nc2ccccn2)c1O` here?
The IC50 was > 10 µM (inactive).

Which IC50 does the source give for `O=C(Nc1nnc(-c2ccc3c(c2)CCCC3)o1)c1ccccc1` here?
Its IC50 is > 10 µM (inactive).

With `O=C(Nc1nnc(-c2cccs2)o1)c1cccc(C(F)(F)F)c1` as the compound, how does the IC50 read?
Its IC50 is > 10 µM (inactive).

For `CC1CCN(S(=O)(=O)c2ccc(NC(=O)CCN3C(=O)c4ccccc4C3=O)cc2)CC1`, which IC50 is on record?
Its IC50 is > 10 µM (inactive).

With `N=c1c2c(-c3ccccc3)c(-c3ccccc3)n(Cc3ccco3)c2ncn1Cc1ccccc1` as the compound, how does the IC50 read?
Its IC50 is 20.9 µM.

With `Cc1[nH]nc(N=CC2=C(O)CC(C)(C)CC2=O)c1-c1ccc(Cl)cc1` as the compound, how does the IC50 read?
Its IC50 is > 10 µM (inactive).

Which IC50 does the source give for `O=C(C1CCCN(S(=O)(=O)c2ccc(Cl)cc2)C1)N(Cc1cccs1)C1CC1` (centres undefined) here?
Its IC50 is > 10 µM (inactive).

With `CC(Sc1ccsc1[N+](=O)[O-])C(=O)NCCc1ccc(Cl)cc1` (centres undefined) as the compound, how does the IC50 read?
The IC50 was > 10 µM (inactive).

Which IC50 does the source give for `O=C1C=C(c2ccccc2)C(=O)N1Nc1ccccc1` here?
The IC50 was > 10 µM (inactive).

With `O=C(OCn1ncc(Br)c(Br)c1=O)c1ccccc1Cl` as the compound, how does the IC50 read?
The IC50 was > 10 µM (inactive).

With `O=C(OCn1ncc(Br)c(Br)c1=O)c1c(F)cccc1F` as the compound, how does the IC50 read?
Its IC50 is > 10 µM (inactive).
